Source: BindingDB's records for doi:10.1021/acs.jmedchem.9b01227 (Johann Wolfgang Goethe-University, 2019)

Target: Mitogen-activated protein kinase kinase kinase 20 (ZAK) (Homo sapiens) (UniProt Q9NYL2)
Experiment: Inhibition of ZAK (unknown origin) expressed in human HEK293 cells incubated for 2 hrs followed by NanoBRET NanoGlo Substrate addition by NanoBRET assay

Sequence of Mitogen-activated protein kinase kinase kinase 20 (ZAK) (Homo sapiens) (Q9NYL2 whole entry, looked up): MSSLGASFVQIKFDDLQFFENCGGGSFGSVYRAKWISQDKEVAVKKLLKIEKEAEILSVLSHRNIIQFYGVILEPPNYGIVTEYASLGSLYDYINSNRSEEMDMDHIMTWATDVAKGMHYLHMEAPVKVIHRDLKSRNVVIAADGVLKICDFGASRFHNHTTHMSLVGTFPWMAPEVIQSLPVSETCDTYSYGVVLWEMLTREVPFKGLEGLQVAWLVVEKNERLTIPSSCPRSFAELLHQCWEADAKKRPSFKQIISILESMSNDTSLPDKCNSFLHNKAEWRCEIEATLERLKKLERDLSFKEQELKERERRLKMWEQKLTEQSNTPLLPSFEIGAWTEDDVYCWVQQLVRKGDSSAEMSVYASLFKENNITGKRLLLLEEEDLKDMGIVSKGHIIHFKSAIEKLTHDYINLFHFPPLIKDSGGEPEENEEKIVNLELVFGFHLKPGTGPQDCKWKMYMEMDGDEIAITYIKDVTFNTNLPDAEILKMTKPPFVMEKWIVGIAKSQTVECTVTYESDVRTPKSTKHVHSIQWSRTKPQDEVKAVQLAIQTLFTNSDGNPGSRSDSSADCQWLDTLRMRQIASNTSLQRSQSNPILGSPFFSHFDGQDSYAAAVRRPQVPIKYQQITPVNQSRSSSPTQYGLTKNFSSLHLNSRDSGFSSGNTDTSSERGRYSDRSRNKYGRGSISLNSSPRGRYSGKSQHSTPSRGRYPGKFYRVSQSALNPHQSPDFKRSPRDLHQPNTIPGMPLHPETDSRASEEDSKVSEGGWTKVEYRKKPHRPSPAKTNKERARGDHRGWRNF

Row | IC50 | Structure (SMILES)
1 | 0.91 µM | Nc1c(C(=O)NCc2ccc(C(=O)NCCCC3CCCCC3)cc2)cnn1-c1ccccc1
2 | 5.8 µM | O=C(NCCCC1CCCCC1)c1ccc(CNC(=O)c2cnn(-c3ccccc3)c2C(F)(F)F)cc1
